Laboratory results as given in PubChem BioAssay (NCI).
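96-well plates; 48 h exposure; 5 concentrations. Endpoints by linear interpolation between flanking doses. Not reached: highest tested concentration assigned. TGI is the concentration that stops growth completely.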

Columns and labels:
Test in all cases: NCI-60 cell line screen, 48 h
PC-3 prostate = system: PC-3 prostate
SK-MEL-2 melanoma = system: SK-MEL-2 melanoma
KM12 colon = system: KM12 colon
HL-60(TB) leukemia = system: HL-60(TB) leukemia
CCRF-CEM leukemia = system: CCRF-CEM leukemia
HCT-15 colon = system: HCT-15 colon
SF-539 CNS = system: SF-539 CNS
OVCAR-8 ovarian = system: OVCAR-8 ovarian
HOP-92 NSCLC = system: HOP-92 NSCLC
HS 578T breast = system: HS 578T breast
NCI-H522 lung = system: NCI-H522 lung
K-562 leukemia = system: K-562 leukemia
T-47D breast = system: T-47D breast
LOX IMVI melanoma = system: LOX IMVI melanoma
SK-OV-3 ovarian = system: SK-OV-3 ovarian
IGROV1 ovarian = system: IGROV1 ovarian
MALME-3M melanoma = system: MALME-3M melanoma
UO-31 renal = system: UO-31 renal
SNB-75 CNS = system: SNB-75 CNS
SF-295 CNS = system: SF-295 CNS
BT-549 breast = system: BT-549 breast
DU-145 prostate = system: DU-145 prostate
SW-620 colon = system: SW-620 colon
SN12C renal = system: SN12C renal
SNB-19 CNS = system: SNB-19 CNS
HCC-2998 colon = system: HCC-2998 colon
SF-268 CNS = system: SF-268 CNS
A498 renal = system: A498 renal
ACHN renal = system: ACHN renal
786-0 renal = system: 786-0 renal
U251 CNS = system: U251 CNS
MCF7 breast = system: MCF7 breast
OVCAR-5 ovarian = system: OVCAR-5 ovarian
OVCAR-4 ovarian = system: OVCAR-4 ovarian
EKVX NSCLC = system: EKVX NSCLC
CAKI-1 renal = system: CAKI-1 renal
NCI-H226 lung = system: NCI-H226 lung
NCI-H23 lung = system: NCI-H23 lung
HCT-116 colon = system: HCT-116 colon
MDA-N = system: MDA-N
SK-MEL-28 melanoma = system: SK-MEL-28 melanoma
HOP-62 NSCLC = system: HOP-62 NSCLC
NCI-H460 lung = system: NCI-H460 lung
UACC-257 melanoma = system: UACC-257 melanoma
A549 NSCLC = system: A549 NSCLC
COLO 205 colon = system: COLO 205 colon
M14 melanoma = system: M14 melanoma
SR leukemia = system: SR leukemia
OVCAR-3 ovarian = system: OVCAR-3 ovarian
RXF 393 renal = system: RXF 393 renal
HT29 colon = system: HT29 colon
TK-10 renal = system: TK-10 renal
RPMI-8226 leukemia = system: RPMI-8226 leukemia
MOLT-4 leukemia = system: MOLT-4 leukemia
SK-MEL-5 melanoma = system: SK-MEL-5 melanoma
NCI/ADR-RES ovarian = system: NCI/ADR-RES ovarian
MDA-MB-435 = system: MDA-MB-435
MDA-MB-231 breast = system: MDA-MB-231 breast

`CO/N=C(\C(=O)N(C)n1cnnc1)c1csc(NC(c2ccccc2)(c2ccccc2)c2ccccc2)n1` showed a TGI (PC-3 prostate) greater than 10 µM, a TGI (SK-MEL-2 melanoma) greater than 10 µM and a TGI (KM12 colon) greater than 10 µM. It also gave a TGI (HL-60(TB) leukemia) greater than 10 µM, a TGI (CCRF-CEM leukemia) greater than 10 µM and a TGI (HCT-15 colon) greater than 10 µM. It also gave a TGI (SF-539 CNS) greater than 10 µM, a TGI (OVCAR-8 ovarian) greater than 10 µM and a TGI (HOP-92 NSCLC) greater than 10 µM. The TGI (HS 578T breast) was greater than 10 µM, the TGI (NCI-H522 lung) was greater than 10 µM and the TGI (K-562 leukemia) was greater than 10 µM. It also gave a TGI (T-47D breast) greater than 10 µM, a TGI (LOX IMVI melanoma) greater than 10 µM and a TGI (SK-OV-3 ovarian) greater than 10 µM. It also gave a TGI (IGROV1 ovarian) greater than 10 µM, a TGI (MALME-3M melanoma) greater than 10 µM and a TGI (UO-31 renal) greater than 10 µM. The TGI (SNB-75 CNS) was greater than 10 µM, the TGI (SF-295 CNS) was greater than 10 µM and the TGI (BT-549 breast) was greater than 10 µM. For the same compound, the TGI (DU-145 prostate) was greater than 10 µM, the TGI (SW-620 colon) was greater than 10 µM and the TGI (SN12C renal) was greater than 10 µM. It also gave a TGI (SNB-19 CNS) greater than 10 µM, a TGI (HCC-2998 colon) greater than 10 µM and a TGI (SF-268 CNS) greater than 10 µM. For the same compound, the TGI (A498 renal) was greater than 10 µM, the TGI (ACHN renal) was greater than 10 µM and the TGI (786-0 renal) was greater than 10 µM. The TGI (U251 CNS) was greater than 10 µM, the TGI (MCF7 breast) was greater than 10 µM and the TGI (OVCAR-5 ovarian) was greater than 10 µM. For the same compound, the TGI (OVCAR-4 ovarian) was greater than 10 µM, the TGI (EKVX NSCLC) was greater than 10 µM and the TGI (CAKI-1 renal) was greater than 10 µM. It also gave a TGI (NCI-H226 lung) greater than 10 µM, a TGI (NCI-H23 lung) greater than 10 µM and a TGI (HCT-116 colon) greater than 10 µM. It also gave a TGI (MDA-N) greater than 10 µM, a TGI (SK-MEL-28 melanoma) greater than 10 µM and a TGI (HOP-62 NSCLC) greater than 10 µM. For the same compound, the TGI (NCI-H460 lung) was greater than 10 µM, the TGI (UACC-257 melanoma) was greater than 10 µM and the TGI (A549 NSCLC) was greater than 10 µM. It also gave a TGI (COLO 205 colon) greater than 10 µM, a TGI (M14 melanoma) greater than 10 µM and a TGI (SR leukemia) greater than 10 µM. For the same compound, the TGI (OVCAR-3 ovarian) was greater than 10 µM, the TGI (RXF 393 renal) was greater than 10 µM and the TGI (HT29 colon) was greater than 10 µM. For the same compound, the TGI (TK-10 renal) was greater than 10 µM, the TGI (RPMI-8226 leukemia) was greater than 10 µM and the TGI (MOLT-4 leukemia) was greater than 10 µM. For the same compound, the TGI (SK-MEL-5 melanoma) was greater than 10 µM and the TGI (NCI/ADR-RES ovarian) was greater than 10 µM.

Compound `NC(=S)N/N=C1\NC(=O)/C(=C/c2ccc3c(c2)OCO3)S1` has a TGI (SK-MEL-2 melanoma) of 90.1 µM, a TGI (KM12 colon) of 55.3 µM and a TGI (HL-60(TB) leukemia) of 63.3 µM. It also gave a TGI (HCT-15 colon) of 82.6 µM, a TGI (SF-539 CNS) greater than 100 µM and a TGI (OVCAR-8 ovarian) of 78 µM. For the same compound, the TGI (HOP-92 NSCLC) was 56.7 µM, the TGI (T-47D breast) was 71.2 µM and the TGI (LOX IMVI melanoma) was 85.2 µM. The TGI (SK-OV-3 ovarian) was greater than 100 µM, the TGI (IGROV1 ovarian) was 49.4 µM and the TGI (UO-31 renal) was greater than 100 µM. It also gave a TGI (SNB-75 CNS) of 52.6 µM, a TGI (SF-295 CNS) greater than 100 µM and a TGI (BT-549 breast) of 84.7 µM. It also gave a TGI (DU-145 prostate) of 88 µM, a TGI (SW-620 colon) of 88.8 µM and a TGI (SN12C renal) greater than 100 µM. For the same compound, the TGI (SNB-19 CNS) was 53.6 µM, the TGI (HCC-2998 colon) was greater than 100 µM and the TGI (SF-268 CNS) was 97.3 µM. It also gave a TGI (A498 renal) of 30.3 µM, a TGI (ACHN renal) greater than 100 µM and a TGI (786-0 renal) greater than 100 µM. The TGI (U251 CNS) was 57.7 µM, the TGI (MCF7 breast) was greater than 100 µM and the TGI (OVCAR-5 ovarian) was 73.1 µM. It also gave a TGI (OVCAR-4 ovarian) of 75.8 µM, a TGI (MDA-MB-435) of 78.1 µM and a TGI (EKVX NSCLC) of 56 µM. It also gave a TGI (CAKI-1 renal) of 71.8 µM, a TGI (MDA-MB-231 breast) of 77.1 µM and a TGI (NCI-H226 lung) of 78.7 µM. The TGI (NCI-H23 lung) was 54.4 µM, the TGI (HCT-116 colon) was 85 µM and the TGI (MDA-N) was 97.9 µM. The TGI (SK-MEL-28 melanoma) was 78.7 µM, the TGI (HOP-62 NSCLC) was 51.5 µM and the TGI (NCI-H460 lung) was greater than 100 µM. For the same compound, the TGI (UACC-257 melanoma) was 76.1 µM, the TGI (A549 NSCLC) was greater than 100 µM and the TGI (COLO 205 colon) was 71.3 µM. For the same compound, the TGI (M14 melanoma) was 68.3 µM, the TGI (OVCAR-3 ovarian) was 45.7 µM and the TGI (RXF 393 renal) was 52.3 µM. For the same compound, the TGI (HT29 colon) was 82.9 µM, the TGI (TK-10 renal) was greater than 100 µM and the TGI (MOLT-4 leukemia) was 67.3 µM. For the same compound, the TGI (SK-MEL-5 melanoma) was 37.7 µM and the TGI (NCI/ADR-RES ovarian) was 78.7 µM.
